According to BindingDB's records for patent US10919852 (Chemocentryx, 2021):

Molecular target: Programmed cell death 1 ligand 1 (Homo sapiens, UniProt Q9NZQ7)
Experiment: Enzyme-Linked Immunosorbent Assay ELISA
Experimental: 96 Well plates were coated with […] of human PD-L1 (obtained from R&D) in PBS overnight at 4° C. The wells were then blocked with 2% BSA in PBS (W/V) with 0.05% TWEEN-20 for 1 hour at 37° C. The plates were washed 3 times with PBS/0.05% TWEEN-20 and the compounds were serial diluted (1:5) in dilution medium and added to the ELISA plates. Human PD-1 and biotin 0.3 μg/mL (ACRO Biosystems) were added and incubated for 1 hour at 37° C. then washed 3 times with PBS/0.05% TWEEN-20. A second block was performed with 2% BSA in PBS (W/V)/0.05% TWEEN-20 for 10 min at 37° C. and was washed 3 times with PBS/0.05% TWEEN-20. Streptavidin-HRP was added for 1 hour at 37° C. then washed 3 times with PBS/0.05% TWEEN-20. TMB substrate was added and reacted for 20 min at 37° C. A stop solution (2 N aqueous H2SO4) was added. The absorbance was read at 450 nm using a micro-plate spectrophotometer.

Sequence of Programmed cell death 1 ligand 1 (Q9NZQ7 whole entry): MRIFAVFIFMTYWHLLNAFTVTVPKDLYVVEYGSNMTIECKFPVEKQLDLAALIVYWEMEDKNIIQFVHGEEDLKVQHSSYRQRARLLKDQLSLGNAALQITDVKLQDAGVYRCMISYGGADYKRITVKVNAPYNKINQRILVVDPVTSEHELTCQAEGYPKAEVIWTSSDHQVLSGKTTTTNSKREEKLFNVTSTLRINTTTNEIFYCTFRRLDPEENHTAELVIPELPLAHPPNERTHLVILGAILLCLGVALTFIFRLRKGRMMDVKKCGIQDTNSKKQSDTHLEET

Row | SMILES | IC50
1 | CC1(F)CCN(CCCOc2cccc(-c3cccc4c3CC[C@@H]4Oc3cc(OCc4cncc(C#N)c4)c(CN[C@H]4CCC(=O)NC4)cc3Cl)c2Cl)CC1 [US10919852, Compound TABLE 1.280] | in the range around 253 nM
2 | Cc1c(OCCCN2CCC(C)(F)CC2)cccc1-c1cccc2c1CC[C@@H]2Oc1cc(OCc2cc(C#N)cc(C#N)c2)c(CN[C@@H]2CCC[C@H]2O)cc1Cl [US10919852, Compound TABLE 1.294] | in the range around 253 nM
3 | Cc1c(OCCCN2CC[C@H](F)C[C@@H]2C)cccc1-c1cccc2c1CC[C@@H]2Oc1cc(OCc2cc(C#N)cc(C#N)c2)c(CN[C@H]2CCC(=O)NC2)cc1Cl [US10919852, Compound TABLE 1.341] | in the range around 253 nM
4 | CCOc1cc(O[C@H]2CCc3c(-c4cccc(OCCCN5[C@H](C)CC[C@H]5C)c4C)cccc32)c(Cl)cc1CN1CCCC[C@H]1C(=O)O [US10919852, Compound TABLE 1.381] | in the range around 253 nM
5 | CCOc1cc(O[C@H]2CCc3c(-c4cccc(OCCCN5CCC5(C)C)c4C)cccc32)c(Cl)cc1CN1CC[C@H](C(=O)O)C1 [US10919852, Compound TABLE 1.412] | in the range around 253 nM
